Test results from patent US20250319213A1, “FUNCTIONALIZED BISAMINOTHIOL DERIVATIVES, COMPLEXES WITH THESE BISAMINOTHIOL DERIVATIVES AND USE OF SAID COMPLEXES AS DIAGNOSTICS AND THERAPEUTICS” (ABX ADVANCED BIOCHEMICAL COMPOUNDS – BIOMEDIZINISCHE …, priority 2022, published 2025).

Molecular target: T1, PSMA (Homo sapiens, UniProt Q04609)
T1 construct: host or cells: LNCaP human prostate carcinoma cells
Test: Direct binding affinity on LNCaP cells (saturation)
Conditions: [99mTc]TcO complex of the listed compound, saturation 0.3-40 nM, 1 h 37° C., mean ± SEM, read-out: Kd [nM] of [99mTc]TcO-complexes
Description: Competition, saturation and internalization assays were assessed using the high PSMA expressing human prostate carcinoma cell line LNCaP (ATCC® CRL-1740). The cells were grown as monolayer at 37° C. in a humidified atmosphere comprising 5% CO2 and 95% air in RPMI medium including 10% FCS (Merck KGAA, Germany). After washing the confluent cells twice with phosphate buffered saline (PBS) and detaching them with trypsin/EDTA (0.05%/0.02%), the cells were suspended in medium and counted (Casy TT, Omni Life Science, Germany).
For saturation monolayer of LNCaP cells were seeded, 5×10^4 cells/well in 48-well plates two days before the assay. On the day of saturation, after aspirating the medium, 160 μL of medium (for ^99mTc-labeled radioligand with D-mannitol (1 mg/mL)) were pipetted per well, for non-specific binding samples including 100 μM 2-PMPA. After preincubation for 5 min, 40 μL activity ([^68Ga]Ga-PSMA-11 or ^99mTc-labeled radioligand solution) were added (total volume/well: 200 μL). Eight concentrations ranged between 0.3 and 40 nM.
After 1 hour of incubation at 37° C. both for competition and saturation samples, the supernatants were aspirated and the cells washed twice with cold PBS. The cell lawn was lysed with 500 μL NaOH/SDS (0.1 M/1%) by shaking for 3 to 5 minutes. After transferring the lysates into measuring tubes, the activity of the samples was measured in a gamma counter (2480 Automatic Gamma Counter Wizard 2, Perkin Elmer, USA).
The half maximal inhibitory concentrations (IC50) and the dissociations constants (Kd) were calculated by fitting the data using a nonlinear curve-fitting program (GraphPad Prism 9). With the Kd value of [^68Ga]Ga-PSMA-11 on LNCaP and the known concentration of [^68Ga]Ga-PSMA-11 in the competition assay the inhibition constants (Ki) was also determined with the curve-fitting program.

T1 sequence (Q04609 whole entry): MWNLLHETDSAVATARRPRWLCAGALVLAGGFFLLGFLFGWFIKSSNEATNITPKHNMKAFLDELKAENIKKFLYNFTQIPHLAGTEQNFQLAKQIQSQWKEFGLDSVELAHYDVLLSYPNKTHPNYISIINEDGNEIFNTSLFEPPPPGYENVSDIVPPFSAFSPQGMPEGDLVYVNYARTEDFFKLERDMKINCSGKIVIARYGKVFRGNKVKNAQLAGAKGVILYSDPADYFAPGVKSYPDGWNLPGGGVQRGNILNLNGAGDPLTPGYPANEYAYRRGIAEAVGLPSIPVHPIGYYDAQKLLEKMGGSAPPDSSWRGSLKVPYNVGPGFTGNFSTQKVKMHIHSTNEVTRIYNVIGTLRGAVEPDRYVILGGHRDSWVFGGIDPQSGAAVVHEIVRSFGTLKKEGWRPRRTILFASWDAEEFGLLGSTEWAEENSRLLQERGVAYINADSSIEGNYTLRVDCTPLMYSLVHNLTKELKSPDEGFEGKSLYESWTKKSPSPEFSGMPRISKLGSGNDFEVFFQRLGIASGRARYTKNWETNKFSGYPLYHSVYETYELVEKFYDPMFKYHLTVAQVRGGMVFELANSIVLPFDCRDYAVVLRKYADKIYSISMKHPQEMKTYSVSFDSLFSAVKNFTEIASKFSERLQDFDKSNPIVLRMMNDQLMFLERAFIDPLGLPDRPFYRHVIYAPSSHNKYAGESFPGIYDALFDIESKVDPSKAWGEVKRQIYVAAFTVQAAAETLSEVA

| Kd | Compound |
| --- | --- |
| 32.1 ± 24.3 nM | CC(C)(S)CNCCN(CCCCC(=O)N[C@@H](Cc1ccccc1)C(=O)N[C@@H](Cc1ccccc1)C(=O)N[C@H](CCCCNC(=O)CCCCCCC(=O)NCCCC[C@H](NC(=O)N[C@@H](CCC(=O)O)C(=O)O)C(=O)O)C(=O)O)CC(C)(C)S [Compound 2] |
| 4.7 ± 3.2 nM | CC(C)(S)CNCCN(CCCCC(=O)N[C@H](Cc1ccc(O)c(I)c1)C(=O)N[C@H](Cc1ccccc1)C(=O)N[C@H](CCCCNC(=O)CCCCCCC(=O)NCCCC[C@H](NC(=O)N[C@@H](CCC(=O)O)C(=O)O)C(=O)O)C(=O)O)CC(C)(C)S [Compound 4] |
| 7.3 nM | O=C(O)CC[C@H](NC(=O)N[C@@H](CCCCNC(=O)CCCCCCC(=O)NCCCC[C@@H](NC(=O)[C@H](CCC(=O)O)NC(=O)[C@H](CCC(=O)O)NC(=O)CCC(=O)NCCCN(CCS)CCNCCS)C(=O)O)C(=O)O)C(=O)O [Compound 6] |
